In patent publication US6313132A, “Therapeutically active diarylpropylamines; their pharmaceutically acceptable salts; a method for their preparation and method for their use” (Pharmacia AB, priority 1999, dated 2001) one finds Kb data, which are given here for 28 compounds.

Structures can show the parent of a compound that is named as a salt.

Broadly, the Kb is the equilibrium dissociation constant of an antagonist, usually derived from a functional assay.

The first test deals with T1, muscarinic receptor (Cavia porcellus, UniProt H0W1Z3).
T1 construct: Smooth muscle strips of the urinary bladder were dissected in a Krebs-Henseleit solution; from tissue; host or cells: guinea pig urinary bladder smooth muscle strips
T1 sequence (H0W1Z3 1-590): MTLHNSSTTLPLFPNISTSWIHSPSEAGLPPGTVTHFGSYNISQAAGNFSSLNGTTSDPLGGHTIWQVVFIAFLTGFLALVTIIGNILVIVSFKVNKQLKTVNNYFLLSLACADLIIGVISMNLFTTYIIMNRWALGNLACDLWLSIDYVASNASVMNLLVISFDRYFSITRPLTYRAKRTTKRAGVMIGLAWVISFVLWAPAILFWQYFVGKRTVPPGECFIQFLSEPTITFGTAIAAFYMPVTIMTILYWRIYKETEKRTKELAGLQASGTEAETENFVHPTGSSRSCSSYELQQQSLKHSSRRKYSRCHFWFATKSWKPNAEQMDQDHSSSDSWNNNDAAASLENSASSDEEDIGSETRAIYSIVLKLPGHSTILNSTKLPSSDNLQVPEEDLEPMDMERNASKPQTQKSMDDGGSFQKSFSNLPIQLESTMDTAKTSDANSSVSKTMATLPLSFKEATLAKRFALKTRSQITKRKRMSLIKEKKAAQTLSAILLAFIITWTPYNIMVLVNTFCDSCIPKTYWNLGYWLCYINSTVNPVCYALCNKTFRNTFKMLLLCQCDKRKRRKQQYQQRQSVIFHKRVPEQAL
In words: Functional in vitro studies: antagonism of carbachol-induced contraction of urinary bladder smooth muscle strips. The conditions noted are these: male guinea pig urinary bladder strips; carbachol agonist; 60 min incubation with antagonist; Krebs-Henseleit pH 7.4, 37° C.; KB from dose ratios (Schild); 60 min; read-out: KB-value. In kind it is cell-based, guinea pig.
Experimental: Functional in Vitro Studies
Male guinea pigs, weighing about 300 g, were killed by a blow on the neck and exsanguinated. Smooth muscle strips of the urinary bladder were dissected in a Krebs-Henseleit solution (pH 7.4). The strip preparations were vertically mounted between two hooks in thermostatically controlled (37° C.) organ baths (5 ml). One of the hooks was adjustable and connected to a force transducer (FT 03, Grass Instruments). The Krebs-Henseleit solution was continuously bubbled with carbogen gas (93.5% O2 /6.5% CO2) to maintain the pH at 7.4. Isometric tension was recorded by a Grass Polygraph (Model 79D). A resting tension of approximately 5 mN was initially applied on each muscle strip and the preparations were allowed to stabilise for at least 45 min. The resting tension was repeatedly adjusted and the preparations were washed several times during the stabilisation period.
Carbachol (carbamylcholine chloride) was used as the standard muscarinic receptor agonist. In each experiment, the viability of the preparations and the reproducibility of their contractile responses were initially tested by two consecutive additions of a submaximal concentration (3×10^-6 M) of carbachol. A concentration-response curve to carbachol was then generated by cumulative addition of carbachol to the organ-bath (i.e., stepwise increase of the agonist concentration until the maximal contractile response was reached), followed by washing out and a resting period of at least 15 min. before a fix concentration of the test compound (antagonist) was added to the organ-bath. After 60 min. of incubation with the antagonist, a second cumulative concentration-responsecurve to carbachol was generated. Responses were expressed as percent of the maximal response to carbachol. EC50 -values for carbachol in the absence (control) and presence of antagonist were graphically derived and dose ratios (r) were calculated. Dissociation constants, KB, for the antagonists were calculated using equation (1) (Schild, H. I., Br. J. Pharmacol. Chemother. 1949, 4, 277-280), where [A] is the concentration of test compound:
Turning to `CC(C)N(CC[C@H](c1ccccc1)c1cc(C(O)CO)ccc1O)C(C)C` (single isomer, unassigned; (+)) [Example 15, (+)-N,N-Diisopropyl-3(R)-[5-(1(R*),2-dihydroxyethyl)-2-hydroxyphenyl]-3-phenylpropanamine fumarate], the Kb is 15 nM.

`CC(C)N(CC[C@H](c1ccccc1)c1cc(C(O)CO)ccc1O)C(C)C` (single isomer, unassigned; (-)) [Example 16, (-)-N,N-Diisopropyl-3(R)-[5-(1(S*),2-dihydroxyethyl) 2-hydroxyphenyl]-3-phenylpropanamine fumarate]: the antagonist dissociation constant (Kb) was found to be 32 nM.

Staying with this test, now noted: male guinea pig urinary bladder strips; carbachol agonist; 60 min incubation with antagonist; Krebs-Henseleit pH 7.4, 37° C.; KB from dose ratios (Schild); read-out: KB-value.
`Cc1ccc(O)c(C(CCN(C(C)C)C(C)C)c2cccs2)c1` (single isomer, unassigned) [Example 55, (R*) N,N-Diisopropyl-3-(2-hydroxy-5-methylphenyl)-3-(2-thienyl)propanamine]: the Kb came to 2 nM.

With `Cc1ccc(O)c(C(CCN(C(C)C)C(C)C)c2cccs2)c1` (single isomer, unassigned) [Example 56, (S*) N,N-Diisopropyl-3-(2-hydroxy-5-methylphenyl)-3-(2-thienyl)propanamine], the Kb amounted to 360 nM.

In the case of `Cc1ccc(O)c(C(CCN(CCOCCO)C(C)C)c2ccccc2)c1` (stereo not shown) [Example 1, N-(5-Hydroxy-3-oxapentyl)-N-isopropyl-3-(2-hydroxy-5-methylphenyl)-3-phenylpropanamine hydrochloride], the Kb is 499 nM.

With `Cc1ccc(O)c(C(CCN(C)C2CCCCC2)c2ccccc2)c1` (stereo not shown) [Example 3, N-Cyclohexyl-N-methyl-3-(2-hydroxy-5-methylphenyl)-3-phenylpropanamine hydrochloride], the Kb came out at 236 nM.

With `CC(C)N(CCC(c1ccccc1)c1ccccc1C(F)(F)F)C(C)C` (stereo not shown) [Example 4, N,N-Diisopropyl-3-(2-trifluoromethylphenyl)-3-phenylpropanamine hydrochloride], the antagonist dissociation constant (Kb) is 132 nM.

`CC(C)N(CCC(c1cccnc1)c1ccccc1O)C(C)C` (stereo not shown) [Example 5, N,N-Diisopropyl-3-(2-hydroxyphenyl)-3-(3-pyridyl)-propanamine dihydrochloride]: the Kb is 336 nM.

`CC(C)N(CCC(c1ccccc1)c1ccccc1F)C(C)C` (stereo not shown) [Example 6, N,N-Diisopropyl-3-(2-fluorophenyl)-3-phenylpropanamine hydrochloride]: the Kb turned out to be 10 nM.

Consider `CC(C)N(CC[C@H](c1ccccc1)c1cc(C=O)ccc1O)C(C)C` [Example 7, (R)-N,N-Diisopropyl-3-(5-formyl-2-hydroxyphenyl)-3-phenylpropanamine hydrochloride], for which the Kb is 13 nM.

In the case of `CC(C)N(CC[C@H](c1ccccc1)c1cc(CNCCOCCO)ccc1O)C(C)C` [Example 8, (R)-N,N-Diisopropyl-3-[5-(7-hydroxy-2-aza-5-oxaheptyl)-2-hydroxyphenyl]-3-phenylpropanazine di-(S)-mandelate], the Kb turned out to be 26 nM.

Consider `COC(=O)c1ccc(O)c([C@H](CCN(C(C)C)C(C)C)c2ccccc2)c1` [Example 9, (R)-N,N-Diisopropyl-3-(2-hydroxy-5-methyloxycarbonyl-phenyl)-3-phenylpropanamine hydrochloride], for which the Kb is 3.8 nM.

Consider `CC(C)N(CCC(c1ccccc1)c1ccccc1CO)C(C)C` (stereo not shown) [Example 10, N,N-Diisopropyl-3-(2-hydroxymethyl)phenyl-3-phenylpropanamine hydrochloride], for which the Kb worked out at 171 nM.

On to `CC(C)N(CC[C@@H](c1ccccc1)c1cc(CCO)ccc1O)C(C)C` [Example 11, (S)-N,N-Diisopropyl-3-[2-hydroxy-5-(2-hydroxyethyl)phenyl]-3-phenylpropanamine hydrochloride], for which the antagonist dissociation constant (Kb) amounted to 431 nM.

Turning to `CC(C)N(CC[C@H](c1ccccc1)c1cc(CCO)ccc1O)C(C)C` [Example 12, (R)-N,N-Diisopropyl-3-[2-hydroxy-5-(2-hydroxyethyl)phenyl]-3-phenylpropanamine hydrochloride], the Kb worked out at 1.18 nM.

In the case of `CC(=O)c1ccc(O)c([C@H](CCN(C(C)C)C(C)C)c2ccccc2)c1` [Example 13, (R)-N,N-Diisopropyl-3-(5-acetyl-2-hydroxyphenyl)-3-phenylpropanamine hydrochloride], the Kb worked out at 15 nM.

Consider `CC(O)c1ccc(O)c([C@H](CCN(C(C)C)C(C)C)c2ccccc2)c1` (stereo partly drawn) [Example 14, N,N-Diisopropyl-3(R)-[2-hydroxy-5-(1-hydroxyethyl)phenyl]-3-phenylpropanamine fumarate], for which the Kb came out at 4.5 nM.

Consider `CC(C)N(CC[C@H](c1ccccc1)c1cc(CCCCCCO)ccc1O)C(C)C` [Example 17, (R)-[N,N-Diisopropyl-3-[2-hydroxy-5-(6-hydroxyhexyl)phenyl]-3-phenylpropanamine hydrochloride], for which the antagonist equilibrium constant (Kb) was 3.5 nM.

Consider `CC(C)N(CCc1ccc(O)c([C@H](CCN(C(C)C)C(C)C)c2ccccc2)c1)C(C)C` [Example 18, (R)-N,N-Diisopropyl-3-[5-(2-diisopropylaminoethyl)-2-hydroxyphenyl]-3-phenylpropanamine hydrochloride], for which the Kb was 172 nM.

With `CCOCc1ccc(O)c([C@H](CCN(C(C)C)C(C)C)c2ccccc2)c1` [Example 19, (R)-N,N-Diisopropyl-3-(5-ethoxymethyl-2-hydroxyphenyl)-3-phenylpropanamine], the Kb came to 2.9 nM.

As for `CC(C)NCCC(c1ccccc1)c1cc(C(=O)O)ccc1O` (stereo not shown) [Example 20, N-Isopropyl-3-(5-carboxy-2-hydroxyphenyl)-3-phenylpropanamine hydrochloride], the Kb was determined as 3320 nM.

As to `CC(C)N(CC[C@H](c1ccccc1)c1cc(CCCN)ccc1O)C(C)C` [Example 22, (R)-N,N-Diisopropyl-3-[5-(3-aminopropyl)-2-hydroxyphenyl]-3-phenylpropanamine dihydrochloride], the Kb is 2.8 nM.

With `CC(=O)NCCCc1ccc(O)c([C@H](CCN(C(C)C)C(C)C)c2ccccc2)c1` [Example 23, (R)-N,N-Diisopropyl-3-[5-3-(acetamidopropyl)-2-hydroxyphenyl]-3-phenylpropanamine hydrochloride], the antagonist equilibrium constant (Kb) was 1.05 nM.

On to `CC(C)N(CC[C@H](c1ccccc1)c1cc(CCC#N)ccc1O)C(C)C` [Example 24, (R)-N,N-Diisopropyl-3-[5-(2-cyanoethyl)-2-hydroxyphenyl]-3-phenylpropanamine hydrochloride], for which the Kb is 1.91 nM.

Regarding `CC(C)N(CC[C@H](c1ccccc1)c1cc(N)ccc1O)C(C)C` [Example 27, (R)-(N,N-Diisopropyl-3-(5-amino-2-hydroxyphenyl)-3-phenylpropanaminedihydrochloride], the Kb worked out at 7.1 nM.

Consider `CC(C)N(CC[C@H](c1ccccc1)c1cc(N=[N+]=[N-])ccc1O)C(C)C` [Example 28, (R)-N,N-Diisopropyl-3-(5-azido-2-hydroxyphenyl)-3-phenylpropanamine hydrochloride], for which the antagonist dissociation constant (Kb) was found to be 8.55 nM.

As for `CC(C)N(CC[C@H](c1ccccc1)c1cc(CCCO)ccc1O)C(C)C` [Example 29, (R) -N,N-Diisopropyl-3-[2-hydroxy-5-(3-hydroxypropyl)phenyl]-3-phenylpropanamine hydrochloride], the antagonist dissociation constant (Kb) was 1.5 nM.

In the case of `CCNCc1ccc(O)c([C@H](CCN(C(C)C)C(C)C)c2ccccc2)c1` [Example 30, N,N-Diisopropyl-3-(5-ethylaminomethyl-2-hydroxyphenyl)-3-phenylpropanamine], the Kb was determined as 139 nM.
